One assay deals with T1, human GLP-1R receptor (Homo sapiens, UniProt P43220, L260F).
T1 construct: expressed in transfected cells; host or cells: CHO-K1 (ATCC CCL-61)
The experiment in a line: CHOK1 GLP-1R cAMP assay (HTRF). It is filed as cell-based. The settings on record: CHO-K1 cells stably expressing human GLP-1R. The method, then: A cell line stably expressing the human GLP-1R receptor (NM_002062.5, including the naturally-occurring variant Leu260Phe) in a CHO-K1 (ATCC® CCL-61™) was used for assay.
GLP-1 receptor mediated agonist activity was determined in a cell-based assay measuring cyclic adenosine monophosphate (cAMP) levels in cells using Homogeneous Time-Resolved Fluorescence (HTRF) cAMP detection kit (CisBio catalog #62AM4PEC, cAMP Gs Dynamic range kit). The cAMP detection method is based on a competitive immunoassay, in which cAMP produced by the cells and cAMP labeled with the dye d2 compete for binding to a Europium-Cryptate-labeled anti-cAMP antibody. The specific HTRF signal is inversely proportional to the concentration of cAMP.
Compounds were added to individual well in 384 well-assay plates (Greiner #784076) using an Echo (LabCyte) dispenser from 10 mM stocks. Varying concentration of compounds were added to wells, and DMSO was used to normalize each well to a volume of 100 nL. A dose response curve of GLP-1(7-36)NH2 (Bachem H-6795) was included in each run. 5 μL of cAMP concentration response standards are applied in specified wells in the assay plates. Cryo-preserved cells are thawed and resuspended in assay buffer pre-heated to 37° C. (20 mM 2-[4-(2-hydroxyethyl)piperazin-1-yl]ethanesulfonic acid (HEPES) pH 7.4, lx Hank's Balanced Salt Solution (HBSS, Life Technologies #14065) supplemented with 0.1% (w/v) bovine serum albumin (Sigma, A-7030)). Cells were centrifuged at 250*g for 5 min at rt, and resuspended in room tempered assay buffer to a final density of 0.16*10^6 cell/mL, to deliver 800 cells/well. 5 μL of assay buffer with 1 mM 3-isobutyl-1-methylxanthin (IBMX; Sigma cat I-7018) was dispensed per well in assay plates using a multidrop combi (Thermo Scientific) subsequently 5 μL of cell suspension was distributed to relevant wells in the assay using a multidrop dispenser. Assay plates were incubated 20 min at rt.
Detection reagents, Europium-Cryptate-labeled anti-cAMP antibody and cAMP labeled with the dye d2, are diluted in lysis buffer, provided by the manufacturer. 5 μL of each detection reagent is supplemented to each assay well using a multidrop dispenser. Assay plates are incubated in the dark for at least one h. The HTRF signal is measured using the HTRF module (excitation: 337 nm, emission A: 665 nm and emission B: 620 nm) in Pherastar FSX (BMG Labtech).
Raw data were converted to pM cAMP using the cAMP standard curve included in each run. Converted data were further analyzed in Genedata Screener (Genedata) and EC50 determinations were made from agonist dose-response curves analyzed with a curve fitting program using a 4-parameter logistic dose response equation (Equation y=A+((B−A)/1+((C/x)^D))) where A is no stimulation, B is full stimulation, C is the EC50 and D is the Hill slope). The percent effect was determined relative to a saturating concentration of a full GLP-1R agonist (GLP-1(7-36)NH2 has 100% effect in this assay setup).
A general note: cAMP levels reflect the balance of adenylyl cyclase and phosphodiesterase activity.

The next assay concerns the target T2, GLP-1R (Homo sapiens, UniProt P43220).
T2 construct: host or cells: EndoC-βH1
The experiment in a line: EndoC cAMP accumulation assay (HTRF, EndoC-βH1 cells). It is filed as cell-based. The note with it: EndoC-βH1 human pancreatic β cell line. From the text: EndoC cAMP Accumulation Assay
A HTRF cAMP assay (cAMP Gs dynamic kit; CisoBio Cat #62AM4PEJ) was used to identify agonists of GLP-1R in a pancreatic insulinoma cell line (EndoC-PH1). […] EndoC-βH1 cells have detectable GLP-1R messenger ribonucleic acid (mRNA) as detected by quantitative polymerase chain reaction (qPCR). […] The EndoC-βH1 cell line is a valid model of human beta cells and applicable for screenings to identify novel drug target candidates (Mol. Metab., 2018, 8, 144-157). CisBio HTRF cAMP kits are based on a competitive immunoassay using cryptate-labelled anti-cAMP antibody and d2-labeled cAMP. The detection kit is intended for the direct quantitative determination of cAMP. The specific signal (i.e. energy transfer) is inversely proportional to the concentration of cAMP in the standard or sample. Test compounds (10 mM in DMSO) were diluted into assay buffer (HBSS (Sigma #H8264) supplemented with 25 mM HEPES (Gibco #15630, pH 7.4), 0.1% BSA (Sigma #A3059) and 0.5 mM IBMX (Sigma #I7018) included fresh on the day of the assay) into 96 well U-bottom plates (Greiner #650201). Diluted compounds were transferred to ECHO source polypropelene plates (Labcyte #P-05525) and dose response curves were dispensed acoustically using ECHO 550 into black shallow-well u-bottom 384-well HTRF Assay Plates (Corning 4514).
Cryovials of EndoC-H1 (supplied at 1×10e^7 cells/vial) were used directly for screening. The cryovials and were removed from N2(l) and thawed rapidly in a 37° C. water bath. The cells were resuspended in assay buffer and centrifuged at 300 g for 5 min. Cells were resuspended in assay buffer at the appropriate concentration, typically at 12e5 cells per mL (3000 cells per well, dependent on cell batch) and 2.5 μL diluted cells were added to all wells of destination plate by Multidrop combi reagent dispenser (Thermofisher). The plates were incubated at rt for 30 min. The assay was stopped by adding 2.5 μL anti-cAMP cryptate solution to all wells and 2.5 μL cAMP-d2 solution (both diluted 1:20 in lysis buffer) to columns 1-22 by Combi drop. A volume of 2.5 μL cAMP-d2 solution was added to wells E23 to P24 and 2.5 μL lysis buffer added to wells A23 to D24 by multichannel pipette. The plates were incubated at rt for 1 h and read on an Envision plate reader using excitation wavelength of 320 nm and emission of 590 nm and 660 nm.
Raw data from Envision is converted to % DeltaF according to the manufacturer's instructions. Dose response curves are analysed via 4-Parameter Logistical Analysis and assay plate Z′ values obtained. Samples are graphed as percentage (%) activation plots compared to GIP (1-42, Bachem H-5645) with assay window defined by negative control as basal cell cAMP levels and positive control are defined by maximum GIP (82.5 nM) signal. GLP-1 (7-36 amide, Bachem H-6795) dose response curve was included on all plates.

For orientation: EC50 means the midpoint of the concentration-response curve.

T1 sequence (P43220 24-463 L260F): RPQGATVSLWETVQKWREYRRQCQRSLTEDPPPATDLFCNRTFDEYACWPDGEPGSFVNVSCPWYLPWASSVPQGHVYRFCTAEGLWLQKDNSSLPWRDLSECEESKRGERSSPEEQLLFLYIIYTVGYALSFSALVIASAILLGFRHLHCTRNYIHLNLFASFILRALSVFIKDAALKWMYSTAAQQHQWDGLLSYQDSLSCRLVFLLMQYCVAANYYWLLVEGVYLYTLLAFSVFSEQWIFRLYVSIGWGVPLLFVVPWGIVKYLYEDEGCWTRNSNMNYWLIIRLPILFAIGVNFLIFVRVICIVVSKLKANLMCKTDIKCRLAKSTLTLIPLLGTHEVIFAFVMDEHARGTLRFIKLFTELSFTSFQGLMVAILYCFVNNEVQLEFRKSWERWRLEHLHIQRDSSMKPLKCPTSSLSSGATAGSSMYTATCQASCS
T2 sequence (P43220 24-463): as the sequence (P43220 24-463 L260F) above, with F237L counted along it

In the case of `N#Cc1ccc(COc2cccc(N3CCN(Cc4nc5cc(Cl)c(C(=O)O)cc5n4C[C@@H]4CCO4)[C@H]4CC[C@H]43)n2)c(F)c1` (single isomer, unassigned) [Example 7b], the values for the EC50 on human GLP-1R receptor and on GLP-1R were 90 nM and 40 nM, respectively.
As to `N#Cc1ccc(COc2cccc(N3CCN(Cc4nc5ccc(C(=O)O)c(Cl)c5n4C[C@@H]4CCO4)[C@H]4CC[C@H]43)n2)c(F)c1` (single isomer, unassigned) [Example 8a], the EC50 on human GLP-1R receptor is 6.1 nM; at GLP-1R it was 28 nM.
The corresponding values for `N#Cc1ccc(COc2cccc(N3CCN(Cc4nc5ccc(C(=O)O)c(Cl)c5n4C[C@@H]4CCO4)[C@H]4CC[C@H]43)n2)c(F)c1` (single isomer, unassigned) [Example 8b] are 28 nM and 41 nM.
Take `N#Cc1ccc(COc2cccc(N3CCN(Cc4nc5ccc(C(=O)O)c(Cl)c5n4C[C@@H]4CCO4)[C@H]4CC[C@H]43)n2)c(F)c1` (single isomer, unassigned) [Example 8c]: the EC50 at human GLP-1R receptor came out at 140 nM; at GLP-1R it was 620 nM.
The corresponding values for `N#Cc1ccc(COc2cccc(N3CCN(Cc4nc5cc(F)c(C(=O)O)cc5n4C[C@@H]4CCO4)[C@H]4CC[C@@H]43)n2)c(F)c1` (single isomer, unassigned) [Example 9a] are 180 nM and 69 nM.
The corresponding values for `CCn1cncc1Cn1c(CN2CCN(c3cccc(OCc4ccc(Cl)cc4F)n3)[C@H]3CC[C@@H]32)nc2c(OC)cc(C(=O)O)cc21` (single isomer, unassigned) [Example 12b] are 8.9 nM and 16 nM.
As for `COc1cc(C(=O)O)cc2c1nc(CN1CCN(c3cccc(OCc4ccc(Cl)cc4F)n3)[C@@H]3COC[C@@H]31)n2C[C@@H]1CCO1` (single isomer, unassigned) [Example 16b, 2-(((4aR*,7aS*)-4-(6-((4-Chloro-2-fluorobenzyl)oxy)pyridin-2-yl)hexahydrofuro[3,4-b]pyrazin-1(2H)-yl)methyl)-4-methoxy-1-(((S)-oxetan-2-yl)methyl)-1H-benzo[d]imidazole-6-carboxylic acid], the EC50 on human GLP-1R receptor was determined as 64 nM; at GLP-1R, 120 nM.
On the same counts, the results for `O=C(O)c1cc(F)c2nc(CN3CCN(c4cccc(OCc5ccc(Cl)cc5F)n4)[C@@H]4COC[C@@H]43)n(C[C@H]3CCOC3)c2c1` (single isomer, unassigned) [Example 18a] are 110 nM and 89 nM.
The corresponding values for `O=C(O)c1cc(F)c2nc(CN3CCN(c4cccc(OCc5ccc(Cl)cc5F)n4)[C@@H]4COC[C@@H]43)n(C[C@H]3CCOC3)c2c1` (single isomer, unassigned) [Example 18b] are 57 nM and 15 nM.
The corresponding values for `O=C(O)c1cc(F)c2nc(CN3CCN(c4cccc(OCc5ccc(Cl)cc5F)n4)[C@@H]4COC[C@@H]43)n(C[C@@H]3CCO3)c2c1` (single isomer, unassigned) [Example 19b, 2-(((4aR*,7aS*)-4-(6-((4-Chloro-2-fluorobenzyl)oxy)pyridin-2-yl)hexahydrofuro[3,4-b]pyrazin-1(2H)-yl)methyl)-4-fluoro-1-(((S)-oxetan-2-yl)methyl)-1H-benzo[d]imidazole-6-carboxylic acid] are 120 nM and 290 nM.
Regarding `O=C(O)c1ccc2nc(CN3CCN(c4cccc(OCc5ccc(Cl)cc5F)n4)[C@@H]4COC[C@@H]43)n(Cc3cocn3)c2c1` (single isomer, unassigned) [Example 20], the figures for the EC50 on human GLP-1R receptor and on GLP-1R were 35 nM and 37 nM, respectively.
On the same counts, the results for `O=C(O)c1ccc2nc(CN3CCN(c4cccc(OCc5ccc(Cl)cc5F)n4)[C@@H]4COC[C@@H]43)n(Cc3cccnc3)c2c1` (single isomer, unassigned) [Example 21] are 74 nM and 71 nM.
The corresponding values for `O=C(O)c1cc(Cl)c2nc(CN3CCN(c4cccc(OCc5ccc(Cl)cc5F)n4)[C@@H]4COC[C@@H]43)n(C[C@@H]3CCO3)c2c1` (single isomer, unassigned) [Example 22a, 4-Chloro-2-(((4aR*,7aS*)-4-(6-((4-chloro-2-fluorobenzyl)oxy)pyridin-2-yl)hexahydrofuro[3,4-b]pyrazin-1(2H)-yl)methyl)-1-(((S)-oxetan-2-yl)methyl)-1H-benzo[d]imidazole-6-carboxylic acid] are 1 nM and 6.6 nM.
On the same counts, the results for `O=C(O)c1cc(Cl)c2nc(CN3CCN(c4cccc(OCc5ccc(Cl)cc5F)n4)[C@@H]4COC[C@@H]43)n(C[C@@H]3CCO3)c2c1` (single isomer, unassigned) [Example 22b, 4-Chloro-2-(((4aR*,7aS*)-4-(6-((4-chloro-2-fluorobenzyl)oxy)pyridin-2-yl)hexahydrofuro[3,4-b]pyrazin-1(2H)-yl)methyl)-1-(((S)-oxetan-2-yl)methyl)-1H-benzo[d]imidazole-6-carboxylic acid] are 150 nM and 270 nM.
Take `Cc1nccn1CCn1c(CN2CCN(c3cccc(OCc4ccc(Cl)cc4F)n3)[C@@H]3COC[C@@H]32)nc2c(F)cc(C(=O)O)cc21` (single isomer, unassigned) [Example 23]: the EC50 worked out at 170 nM on human GLP-1R receptor and 110 nM on GLP-1R.
With `Cc1nccn1CCn1c(CN2CCN(c3cccc(OCc4ccc(Cl)cc4F)n3)[C@@H]3COC[C@@H]32)nc2c(Cl)cc(C(=O)O)cc21` (single isomer, unassigned) [Example 24], the results for the EC50 at human GLP-1R receptor and at GLP-1R were 250 nM and 340 nM, respectively.
For the compound `Cc1nccn1CCn1c(CN2CCN(c3cccc(OCc4ccc(Cl)cc4F)n3)[C@@H]3COC[C@@H]32)nc2ccc(C(=O)O)cc21` (single isomer, unassigned) [Example 25a], the EC50 was 110 nM at human GLP-1R receptor and 170 nM at GLP-1R.
On the same counts, the results for `Cc1nccn1CCn1c(CN2CCN(c3cccc(OCc4ccc(Cl)cc4F)n3)[C@@H]3COC[C@@H]32)nc2ccc(C(=O)O)cc21` (single isomer, unassigned) [Example 25b] are 250 nM and 1100 nM.

Values taken from US20250115612A1, “CERTAIN 2,5-DIAZABICYCLO[4.2.0]OCTANES AND OCTAHYDROFURO[3,4-B]PYRAZINES AS GLP-1 RECEPTOR MODULATORS” (ASTRAZENECA AB, priority 2021, published 2025).
